The structures appear in SMILES notation.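 Interpolation was linear, between the two tested concentrations surrounding the appropriate level; five concentrations were tested over 48 hours in 96-well plates. The concentration for 50% growth inhibition is given as GI50. TGI marks complete inhibition of growth.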

One assay deals with COLO 205 colon. In words: NCI anticancer screen, dose series, 48 h.
`Cc1ccc2nc3c(Cl)c(C)c(=O)cc-3sc2c1`: the GI50 was over 100 µM and the TGI was over 100 µM.

As to `O=C/C(=C(/Cl)c1ccc(O)cc1)c1ccccc1`, the TGI was 46.9 µM.

On to `C=CCO/N=C/c1cc(NC(=S)c2ccoc2C)ccc1Cl`, for which the TGI is 27.5 µM.

With `Cn1c2ccccc2c2c(=O)c3ccccc3[nH]c21`, the GI50 was 55.8 µM and the TGI is over 100 µM.

In the next assay the test system is SK-MEL-2 melanoma. In words: NCI anticancer screen, dose series, 48 h.
Take `Cc1cc(Nc2nc(SCc3ccc(C(=O)Nc4ccc(F)cc4N)cc3)nn3cccc23)n[nH]1`: the GI50 is 0.617 µM and the TGI turned out to be 6.01 µM.

`CCOC(=O)C(=O)Nc1ccccc1C(F)(F)F` displayed a TGI of over 100 µM.

As to `CCOC(=O)/C(=C/c1cccc(OC)c1)N(CC)CC`, the TGI is over 100 µM.

As to `OC(CN1CC1)C(O)CN1CC1` (configuration not stated), the GI50 is over 50 µg/mL and the TGI is over 50 µg/mL.

`CNC(SC)=C1C(=O)OC(C)(C)OC1=O`: the TGI was over 100 µM.

For `c1ccc2nc3c(cc4ccccn43)nc2c1`, the GI50 is 43.8 µM and the TGI was over 100 µM.

Consider `NC(=O)/C=C/C(=O)O`, for which the TGI was over 5000 µM.

`Cc1c(C(=O)CSc2nc3ccccc3c(=O)n2-c2ccccc2)c(=O)n(-c2ccccc2)n1C` had a TGI of over 100 µM.

Take `c1ccc(Cn2cnc3ccc(-c4nc(-c5ccc6c(c5)ncn6C5CCCCC5)cn5ccnc45)cc32)cc1`: the GI50 was 2.02 µM and the TGI came out at 4.85 µM.

Consider `CC(=O)OCC1OC(n2cc([N+](=O)[O-])c(=O)[nH]c2=O)C(OC(C)=O)C(OC(C)=O)C1OC(C)=O` (configuration not stated), for which the TGI was over 100 µM.

In the case of `O=c1c(Cl)c(Cl)cnn1CCc1ccncc1`, the TGI was determined as 39.7 µM.

Take `CCCCCCCCCCCCCC(=O)OCC1OC(=O)CC1O` (configuration not stated): the TGI was over 100 µM.

For `CCSc1nc(N)c2cn[nH]c2n1`, the GI50 is 47.3 µM and the TGI was over 100 µM.

Molecule `CC1(Cc2ccccc2)NC(=S)NC1=O` (configuration not stated) yielded a TGI of over 100 µM.

Consider `O=c1c2c3c(sc2n2c(-c4cc(-c5ccccc5)nn4-c4ccccc4)nnc2n1Cc1ccccc1)CCCC3`, for which the GI50 is over 100 µM and the TGI is over 100 µM.

In the case of `COc1ccc(CC(C)C(C)Cc2ccc(OC)c(OC)c2)cc1OC` (configuration not stated), the GI50 was over 1400 µM and the TGI is over 1400 µM.

Molecule `Cc1ccc2c(c1)Sc1ccc(N=NN(C)C)cc1N2C` displayed a TGI of over 100 µM.

Turning to `O=C1C2=C(c3ccccc31)C(c1ccccc1Cl)N1C(=O)CCSC1=N2` (configuration not stated), the TGI was over 100 µM.

As for `Cc1ccc2nc3c(Cl)c(C)c(=O)cc-3sc2c1`, the GI50 was 51.1 µM and the TGI is over 100 µM.

`O=C/C(=C(/Cl)c1ccc(O)cc1)c1ccccc1` had a TGI of 81.6 µM.

Regarding `C=CCO/N=C/c1cc(NC(=S)c2ccoc2C)ccc1Cl`, the TGI is 28 µM.

With `Cn1c2ccccc2c2c(=O)c3ccccc3[nH]c21`, the GI50 was over 100 µM and the TGI is over 100 µM.

A further assay deals with HOP-62 NSCLC. The experiment in a line: NCI anticancer screen, dose series, 48 h.
As for `Cc1cc(Nc2nc(SCc3ccc(C(=O)Nc4ccc(F)cc4N)cc3)nn3cccc23)n[nH]1`, the GI50 is 0.556 µM and the TGI is over 100 µM.

In the case of `COc1ccccc1/C=C/C(=O)/C=C/c1ccccc1O`, the GI50 was 3.06 µM and the TGI worked out at 6.63 µM.

In turn, `CCOC(=O)C(=O)Nc1ccccc1C(F)(F)F` returned a TGI of over 100 µM.

As to `CCOC(=O)/C(=C/c1cccc(OC)c1)N(CC)CC`, the TGI was over 100 µM.

`OC(CN1CC1)C(O)CN1CC1` (configuration not stated): the GI50 was over 50 µg/mL and the TGI was over 50 µg/mL.

As for `CNC(SC)=C1C(=O)OC(C)(C)OC1=O`, the TGI is over 100 µM.

`c1ccc2nc3c(cc4ccccn43)nc2c1`: the GI50 was 18.9 µM and the TGI was found to be 74.1 µM.

For `NC(=O)/C=C/C(=O)O`, the TGI is over 5000 µM.

The molecule `Cc1c(C(=O)CSc2nc3ccccc3c(=O)n2-c2ccccc2)c(=O)n(-c2ccccc2)n1C` showed a TGI of 69.1 µM.

`CC(=O)OCC1OC(n2cc([N+](=O)[O-])c(=O)[nH]c2=O)C(OC(C)=O)C(OC(C)=O)C1OC(C)=O` (configuration not stated): the TGI is over 100 µM.

`O=C1C=C(O)c2[nH]c(=O)ccc2C1=O`: the TGI is over 100 µM.

`O=c1c(Cl)c(Cl)cnn1CCc1ccncc1` yielded a TGI of 33.9 µM.

The molecule `CCCCCCCCCCCCCC(=O)OCC1OC(=O)CC1O` (configuration not stated) registered a TGI of over 100 µM.

With `CCSc1nc(N)c2cn[nH]c2n1`, the GI50 was 49 µM and the TGI was over 100 µM.

Take `CC1(Cc2ccccc2)NC(=S)NC1=O` (configuration not stated): the TGI is over 100 µM.

Regarding `O=c1c2c3c(sc2n2c(-c4cc(-c5ccccc5)nn4-c4ccccc4)nnc2n1Cc1ccccc1)CCCC3`, the GI50 was over 100 µM and the TGI is over 100 µM.

As to `COc1ccc(CC(C)C(C)Cc2ccc(OC)c(OC)c2)cc1OC` (configuration not stated), the GI50 was 750 µM and the TGI is over 1400 µM.

`Cc1ccc2c(c1)Sc1ccc(N=NN(C)C)cc1N2C`: the TGI was over 100 µM.

For the molecule `O=C1C2=C(c3ccccc31)C(c1ccccc1Cl)N1C(=O)CCSC1=N2` (configuration not stated), the TGI was over 100 µM.

As to `Cc1ccc2nc3c(Cl)c(C)c(=O)cc-3sc2c1`, the GI50 is 47.8 µM and the TGI is over 100 µM.

The molecule `C=CCO/N=C/c1cc(NC(=S)c2ccoc2C)ccc1Cl` registered a TGI of 29.5 µM.

As to `Cn1c2ccccc2c2c(=O)c3ccccc3[nH]c21`, the GI50 was 38.9 µM and the TGI is over 100 µM.

The subject of the next assay is K-562 leukemia. In words: NCI anticancer screen, dose series, 48 h.
As for `Cc1cc(Nc2nc(SCc3ccc(C(=O)Nc4ccc(F)cc4N)cc3)nn3cccc23)n[nH]1`, the GI50 is 0.0487 µM and the TGI was over 100 µM.

With `COc1ccccc1/C=C/C(=O)/C=C/c1ccccc1O`, the GI50 was 0.441 µM.

`CCOC(=O)/C(=C/c1cccc(OC)c1)N(CC)CC` registered a TGI of over 100 µM.

(Values after PubChem BioAssay (NCI).)
